Data set [1] concerns murine thymocyte proliferation. Put plainly: Thymocyte proliferation co-stimulated by ConA and IL-2 (tritiated thymidine). As to conditions: for inhibition with delayed addition: 1 µM. Type of data set: cell-based, Balb/C mice.
For data set [2], the system named is murine splenocyte proliferation. Nature of the data set: Splenocyte (B cell) proliferation stimulated by anti-mu/anti-IgM and IL-4. It counts as cell-based. As to conditions: Mus musculus, anti-IgM antibodies (10 µg/ml) and murine IL-4 (12.5 ng/ml). As to the method: This example illustrates inhibitive effects of compounds nos. 27 and 28 on murine splenocyte proliferation stimulated by anti-mu ([…]) and interleukin-4 (IL-4, 12.5 ng/ml). This in vitro assay, described above, is indicative of immune-suppressive/autoimmune treatment assay emphasizing humoral or B cell immune response. The inventive compound was added to the cells at the doses indicated two hours prior to activation with anti-mu and IL-4. Both compounds nos. 27 and 28 inhibited splenocyte proliferation in a dose-response manner. IC50 values for compounds nos. Background counts were less than 200 cpm.
In figure 57, results shown illustrate that inventive compound no. 45 inhibits B cell proliferation. Murine splenocytes were stimulated with anti-IgM antibodies (10 µg/ml) and murine IL-4 (12.5 ng/ml). Cells were pulsed with ^3HTdR at 44 hours, harvested 4 hours later, and the incorporation of ^3H-TdR was determined by liquid scintillation.

For data set [3], the system named is B16 melanoma cells. Put plainly: B16 melanoma in vivo study: bone marrow toxicity. Also on record: species or system mice. As to conditions: 10 mg/kg QD or 20 mg/kg QOC. How it is done:
Figures 41A, 41B and 41C illustrates the results from an in vivo study in mice where B16 melanoma cells were injected intravenously through a tail vein on day 0 and compound no. 50 was administered inter parenterally at 10 mg/kg QD or 20 mg/kg QOC, starting days 1-14. The mice were sacrificed on day 15 and the lungs were dissected and fixed in formalin. In addition bone marrow toxicity was evaluated by measuring neutrophil and platelet counts in the mice on day 15.

The subject of data set [4] is human pulmonary smooth muscle cells. Put plainly: Growth factor-induced proliferation of pulmonary smooth muscle cells. Type of data set: cell-based. As to conditions: 5 µM. How it is done: 58 on either aFGF or bFGF-induced proliferation in human pulmonary smooth muscle cells. Cells were grown in reduced serum (0.5% fetal calf serum) for 24 hours prior to stimulating with various concentrations of […]. Cells, stimulated with either aFGF or bFGF, were analyzed in the presence and absence of compound no. 58 (5 µM). Assay results are reported in figures 25A and 25B (aFGF and bFGF, respectively). As shown in the results, compound no.
(§1) Figures 65A-65F illustrate inhibition of proliferation in either human aortic or pulmonary smooth muscle cells (SMC) by inventive compound no. 58. Procedurally, cells were cultured in 0.5% serum containing medium 24 hours prior to stimulation with various concentrations of either PDGF (figs. 65A and 65B), acidic FGF (figs. 65C and 65D) or basic FGF (figs. 65E and 65F). Cells were stimulated for 24 hours prior to labeling with ^3H-TdR for 4 hours and harvested and counted by scintillation. Compound no. 58 was added 1 hour prior to stimulation at a concentration of 5 µM. Even at points of maximum stimulation of the growth factors, compound no. […] In addition cell number was assessed and those treated with compound no.

The subject of data set [5] is human aortic smooth muscle cells (aortic SMC). Nature of the data set: Growth factor-induced proliferation of aortic smooth muscle cells. It counts as cell-based. The conditions noted are these: 5 µM. As to the method:
58. One assay was used for investigating effects on PDGF-induced proliferation of human aortic smooth muscle cells (aortic SMC). Cells, purchased from a commercial supplier (Cell Systems, Inc., Seattle, WA), were cultured with various concentrations of PDGF-BB with and without addition of compound no. 58 (5 µM). […] 58 inhibited PDGF-induced proliferation even at high PDGF concentrations providing maximum proliferative stimulation. In addition, some cultures were treated 1 hour prior to PDGF stimulation with inventive compound no. 58. As shown, PDGF stimulated proliferation in this cell line. Addition of 5 µM of compound no. […] 58 were observed.
Another assay was used for investigating inhibitory effects of inventive compound no. 58 on either basic or acidic FGF-induced proliferation in human aortic smooth muscle cells (aortic SMC). Disregulated bFGF- or aFGF-induced proliferation is linked to SMC proliferation and neointimal occlusion in atherogenesis and restenosis and plays a role in autocrine and paracrine stimulation of tumor cells and tumor cell-induced angiogenesis. In this assay, cells were grown in reduced serum (0.5% fetal calf serum) for 24 hours prior to stimulating with various concentrations of […]. Cells were stimulated with various concentrations overnight of either aFGF or bFGF, adding 5µM of compound no. 58 in selected cultures. Compound no. […] Results shown in figure 20A (aFGF) and figure 20B (bFGF) illustrate the degree of inhibition.
as §1

As usually defined, the IC50 is the concentration at which inhibition is half-maximal. Higher therefore signals weaker potency in that assay. Take `CCCCCCCCNCC(O)CCCCCCCCCn1c(=O)c2c(ncn2C)n(C)c1=O` (centres unmarked) [compound no. 45]: the “inhibition with delayed addition” value in data set [1] (added 72 and 92 hours after IL-2) is “significant inhibition remained even at 72 and 92 hours following addition of IL-2”; in data set [1] (added 24 hours after IL-2) it was “maximally inhibits thymocyte proliferation even when added 24 hours following the IL-2 stimulation”. The IC50 in data set [1] (Mus musculus, Thymocyte, Con A (0.25 µg/ml) and IL-2 (20 ng/ml), 96 hours) was roughly 350 nM; in data set [2], 1200 nM.
For the compound `CCCCCCCCCCCCNCC(O)CCCCCCCCCn1c(=O)c2c(ncn2C)n(C)c1=O` (centres unmarked) [compound no. 50, 1-(11-Dodecylamino-10-hydroxyundecyl)-3,7-dmethylxanthine], the “neutrophil and platelet counts” value in data set [3] (day 15) was “increased counts over non-treated control animals”. Also, the bone marrow toxicity result in data set [3] (days 1-14, day 15) was “not toxic to the bone marrow”.
On to `COc1cc(CNCC(O)CCCCCCCCCn2c(=O)c3c(ncn3C)n(C)c2=O)cc(OC)c1OC` (centres unmarked) [compound no. 58, 1-[11-(3,4,5-Trimethoxybenzylamino)-10-hydroxyundecyl]-3,7-dimethylxanthine], for which, in data set [4], the “inhibition of aFGF and bFGF-induced proliferation” value is “a potent inhibitor of both aFGF and bFGF-induced proliferation”; the toxic effect entry was “No toxic effect”. Also, in data set [4] (added 1 hour prior), the “inhibition of proliferation at maximum stimulation by PDGF, acidic FGF or basic FGF” value was “completely inhibited cellular proliferation in both aortic and pulmonary SMC”. For the same compound, in data set [5], the “inhibition of PDGF-induced proliferation” value is reported as “blocked PDGF-stimulated proliferation”; the “inhibition of aFGF- and bFGF-induced proliferation” value was “a potent inhibitor of both aFGF- and bFGF-induced proliferation”; the toxic effects entry is on record as “No toxic effects”. Moreover, in data set [5] (added 1 hour prior), the “inhibition of proliferation at maximum stimulation by PDGF, acidic FGF or basic FGF” value was “completely inhibited cellular proliferation in both aortic and pulmonary SMC”. In data set [5] (aortic and pulmonary SMC), the “cell number following growth factor stimulation” value was “showed no increase in cell number following growth factor stimulation”.

The values are drawn from patent publication EP0719267B1, “SECOND MESSENGER CELL SIGNALING INHIBITORS” (CELL THERAPEUTICS, INC., priority 1993, dated 1994).
